Measurements reported in ChEMBL document CHEMBL3826970, “Design, synthesis, anti-tumor activity, and molecular modeling of quinazoline and pyrido[2,3-d]pyrimidine derivatives targeting epidermal growth factor receptor” (Eur J Med Chem, 2016).

Test system: MCF7;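 note: antiproliferative effect quantified with an MTT readout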
Experiment: cells
Format: functional, cell-based
Details: Homo sapiens, MCF7, 72 h

Row | Compound | IC50
1 | Cn1cc(-c2ccc3ncnc(Nc4ccc5ncccc5c4)c3c2)cn1 | 0.49 µM
2 | COc1cccc(CNc2ncnc3ncc(-c4cnn(C)c4)cc23)c1 | > 100 µM
3 | CC(Nc1ncnc2ncc(-c3cnn(C)c3)cc12)c1ccncc1 (centres undefined) | > 100 µM
4 | C#Cc1cccc(Nc2ncnc3ccc(-c4cnn(C)c4)cc23)c1 | 11.4 µM
5 | COc1cccc(CNc2ncnc3ccc(-c4cnn(C)c4)cc23)c1 | 40 µM
6 | Fc1ccc(Nc2ncnc3ccc(-c4cnn(C5CCNCC5)c4)cc23)cc1Cl | 31.3 µM

The next lines start with the values.

Row | IC50 | Compound
7 | 2.67 µM | CC(Oc1ncnc2ccc(-c3cnn(C4CCNCC4)c3)cc12)c1c(Cl)ccc(F)c1Cl (centres undefined)
8 | 1.63 µM | CC(Nc1ncnc2ncc(-c3cnn(C4CCNCC4)c3)cc12)c1c(Cl)ccc(F)c1Cl (centres undefined)
9 | 2.65 µM | CC(Nc1ncnc2ccc(-c3cnn(C4CCNCC4)c3)cc12)c1c(Cl)ccc(F)c1Cl (centres undefined)

Test system: A549;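 note: antiproliferative effect read out by MTT assay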
Experiment: cells
Format: functional, cell-based
Details: Homo sapiens, A549, 72 h
Description: Antiproliferative activity against human A549 cells after 72 hrs by MTT assay

Row | Compound | IC50
10 | Cn1cc(-c2ccc3ncnc(Nc4ccc5ncccc5c4)c3c2)cn1 | 1.38 µM
11 | COc1cccc(CNc2ncnc3ncc(-c4cnn(C)c4)cc23)c1 | > 100 µM
12 | CC(Nc1ncnc2ncc(-c3cnn(C)c3)cc12)c1ccncc1 (centres undefined) | > 100 µM
13 | C#Cc1cccc(Nc2ncnc3ccc(-c4cnn(C)c4)cc23)c1 | 9.86 µM
14 | COc1cccc(CNc2ncnc3ccc(-c4cnn(C)c4)cc23)c1 | 48.9 µM
15 | Fc1ccc(Nc2ncnc3ccc(-c4cnn(C5CCNCC5)c4)cc23)cc1Cl | 29.4 µM

Second part, the molecule after the results:

Row | IC50 | Compound
16 | 6.75 µM | CC(Oc1ncnc2ccc(-c3cnn(C4CCNCC4)c3)cc12)c1c(Cl)ccc(F)c1Cl (centres undefined)
17 | 29.7 µM | CC(Nc1ncnc2ncc(-c3cnn(C4CCNCC4)c3)cc12)c1c(Cl)ccc(F)c1Cl (centres undefined)
18 | 7 µM | CC(Nc1ncnc2ccc(-c3cnn(C4CCNCC4)c3)cc12)c1c(Cl)ccc(F)c1Cl (centres undefined)

Test system: not listed separately
Experiment: Antiproliferative activity against human BT474 cells after 72 hrs by MTT assay
Format: functional, cell-based
Details: BT-474, 72 h

Row | Compound | IC50
19 | Cn1cc(-c2ccc3ncnc(Nc4ccc5ncccc5c4)c3c2)cn1 | 10.9 µM
20 | COc1cccc(CNc2ncnc3ncc(-c4cnn(C)c4)cc23)c1 | > 100 µM
21 | CC(Oc1ncnc2ccc(-c3cnn(C4CCNCC4)c3)cc12)c1c(Cl)ccc(F)c1Cl (centres undefined) | 4.14 µM
22 | CC(Nc1ncnc2ncc(-c3cnn(C)c3)cc12)c1ccncc1 (centres undefined) | > 100 µM
23 | CC(Nc1ncnc2ncc(-c3cnn(C4CCNCC4)c3)cc12)c1c(Cl)ccc(F)c1Cl (centres undefined) | 13.5 µM
24 | C#Cc1cccc(Nc2ncnc3ccc(-c4cnn(C)c4)cc23)c1 | 5.68 µM
25 | COc1cccc(CNc2ncnc3ccc(-c4cnn(C)c4)cc23)c1 | 30.4 µM
26 | Fc1ccc(Nc2ncnc3ccc(-c4cnn(C5CCNCC5)c4)cc23)cc1Cl | 15.2 µM
27 | CC(Nc1ncnc2ccc(-c3cnn(C4CCNCC4)c3)cc12)c1c(Cl)ccc(F)c1Cl (centres undefined) | 8.13 µM

Test system: SK-BR-3;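 note: antiproliferative effect determined with an MTT read-out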
Experiment: cells
Format: functional, cell-based
Details: Homo sapiens, SK-BR-3, 72 h
Description: Antiproliferative activity against human SK-BR-3 cells after 72 hrs by MTT assay

Row | Compound | IC50
28 | Cn1cc(-c2ccc3ncnc(Nc4ccc5ncccc5c4)c3c2)cn1 | 0.064 µM
29 | COc1cccc(CNc2ncnc3ncc(-c4cnn(C)c4)cc23)c1 | > 100 µM
30 | CC(Nc1ncnc2ncc(-c3cnn(C)c3)cc12)c1ccncc1 (centres undefined) | > 100 µM
31 | C#Cc1cccc(Nc2ncnc3ccc(-c4cnn(C)c4)cc23)c1 | 5.87 µM
32 | COc1cccc(CNc2ncnc3ccc(-c4cnn(C)c4)cc23)c1 | 36 µM
33 | Fc1ccc(Nc2ncnc3ccc(-c4cnn(C5CCNCC5)c4)cc23)cc1Cl | 3.74 µM

Other lines, results leading:

Row | IC50 | Compound
34 | 2.5 µM | CC(Oc1ncnc2ccc(-c3cnn(C4CCNCC4)c3)cc12)c1c(Cl)ccc(F)c1Cl (centres undefined)
35 | 17.7 µM | CC(Nc1ncnc2ncc(-c3cnn(C4CCNCC4)c3)cc12)c1c(Cl)ccc(F)c1Cl (centres undefined)
36 | 4.39 µM | CC(Nc1ncnc2ccc(-c3cnn(C4CCNCC4)c3)cc12)c1c(Cl)ccc(F)c1Cl (centres undefined)

Test system: MDA-MB-231;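 note: antiproliferative effect read out with the MTT assay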
Experiment: cells
Format: functional, cell-based
Details: Homo sapiens, MDA-MB-231, 72 h

Row | Compound | IC50
37 | Cn1cc(-c2ccc3ncnc(Nc4ccc5ncccc5c4)c3c2)cn1 | 26.3 µM
38 | COc1cccc(CNc2ncnc3ncc(-c4cnn(C)c4)cc23)c1 | > 100 µM
39 | CC(Nc1ncnc2ncc(-c3cnn(C)c3)cc12)c1ccncc1 (centres undefined) | > 100 µM
40 | C#Cc1cccc(Nc2ncnc3ccc(-c4cnn(C)c4)cc23)c1 | 16.9 µM
41 | COc1cccc(CNc2ncnc3ccc(-c4cnn(C)c4)cc23)c1 | 28.5 µM
42 | Fc1ccc(Nc2ncnc3ccc(-c4cnn(C5CCNCC5)c4)cc23)cc1Cl | 28.4 µM

Other lines, results leading:

Row | IC50 | Compound
43 | 6.77 µM | CC(Oc1ncnc2ccc(-c3cnn(C4CCNCC4)c3)cc12)c1c(Cl)ccc(F)c1Cl (centres undefined)
44 | 7.11 µM | CC(Nc1ncnc2ncc(-c3cnn(C4CCNCC4)c3)cc12)c1c(Cl)ccc(F)c1Cl (centres undefined)
45 | 12.6 µM | CC(Nc1ncnc2ccc(-c3cnn(C4CCNCC4)c3)cc12)c1c(Cl)ccc(F)c1Cl (centres undefined)

Target: T1, Epidermal growth factor receptor (Homo sapiens, UniProt P00533)
T1 sequence (P00533 whole entry): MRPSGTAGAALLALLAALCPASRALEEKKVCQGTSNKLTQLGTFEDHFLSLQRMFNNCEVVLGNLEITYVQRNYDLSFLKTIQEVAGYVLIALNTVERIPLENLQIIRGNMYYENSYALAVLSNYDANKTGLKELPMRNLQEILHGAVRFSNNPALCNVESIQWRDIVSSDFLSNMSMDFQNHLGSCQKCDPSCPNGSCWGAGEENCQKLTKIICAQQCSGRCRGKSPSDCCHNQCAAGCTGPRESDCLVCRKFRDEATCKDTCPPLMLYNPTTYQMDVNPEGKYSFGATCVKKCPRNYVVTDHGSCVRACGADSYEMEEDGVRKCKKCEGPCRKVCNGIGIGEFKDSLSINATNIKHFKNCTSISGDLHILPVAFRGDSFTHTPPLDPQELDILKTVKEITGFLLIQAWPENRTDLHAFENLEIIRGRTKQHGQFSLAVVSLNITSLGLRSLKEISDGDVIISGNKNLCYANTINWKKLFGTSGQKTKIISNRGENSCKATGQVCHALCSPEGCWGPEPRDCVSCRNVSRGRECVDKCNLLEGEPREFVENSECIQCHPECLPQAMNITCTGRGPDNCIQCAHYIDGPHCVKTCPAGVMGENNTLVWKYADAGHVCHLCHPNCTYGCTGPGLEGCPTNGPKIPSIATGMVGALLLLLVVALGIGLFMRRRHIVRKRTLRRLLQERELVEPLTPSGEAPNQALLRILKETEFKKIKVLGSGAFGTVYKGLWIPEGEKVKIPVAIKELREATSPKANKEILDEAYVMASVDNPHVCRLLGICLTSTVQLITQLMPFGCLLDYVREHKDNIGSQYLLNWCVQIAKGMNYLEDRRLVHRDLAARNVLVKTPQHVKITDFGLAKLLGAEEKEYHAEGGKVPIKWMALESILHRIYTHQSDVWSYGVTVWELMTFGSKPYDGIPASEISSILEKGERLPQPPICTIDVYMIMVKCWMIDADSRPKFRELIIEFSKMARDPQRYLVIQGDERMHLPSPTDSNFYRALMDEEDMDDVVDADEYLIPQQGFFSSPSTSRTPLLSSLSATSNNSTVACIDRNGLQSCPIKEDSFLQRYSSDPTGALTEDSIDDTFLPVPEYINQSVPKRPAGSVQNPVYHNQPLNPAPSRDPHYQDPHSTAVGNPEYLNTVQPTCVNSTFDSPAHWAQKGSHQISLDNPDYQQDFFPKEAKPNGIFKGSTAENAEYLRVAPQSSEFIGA
Experiment: not given
Details: not given

Row | Compound | IC50
46 | Cn1cc(-c2ccc3ncnc(Nc4ccc5ncccc5c4)c3c2)cn1 | 0.0441 µM
47 | C#Cc1cccc(Nc2ncnc3ccc(-c4cnn(C)c4)cc23)c1 | 0.00358 µM
48 | Fc1ccc(Nc2ncnc3ccc(-c4cnn(C5CCNCC5)c4)cc23)cc1Cl | 0.0319 µM

Target: Epidermal growth factor receptor (Homo sapiens, UniProt P00533, L858R)
Experiment: not given
Details: not given

Row | Compound | IC50
49 | Cn1cc(-c2ccc3ncnc(Nc4ccc5ncccc5c4)c3c2)cn1 | 0.108 µM
50 | C#Cc1cccc(Nc2ncnc3ccc(-c4cnn(C)c4)cc23)c1 | 0.00425 µM
51 | Fc1ccc(Nc2ncnc3ccc(-c4cnn(C5CCNCC5)c4)cc23)cc1Cl | 0.0391 µM

Target: Epidermal growth factor receptor (Homo sapiens, UniProt P00533, L858R/T790M)
Sequence (P00533 25-1210 T790M/L858R limits assumed): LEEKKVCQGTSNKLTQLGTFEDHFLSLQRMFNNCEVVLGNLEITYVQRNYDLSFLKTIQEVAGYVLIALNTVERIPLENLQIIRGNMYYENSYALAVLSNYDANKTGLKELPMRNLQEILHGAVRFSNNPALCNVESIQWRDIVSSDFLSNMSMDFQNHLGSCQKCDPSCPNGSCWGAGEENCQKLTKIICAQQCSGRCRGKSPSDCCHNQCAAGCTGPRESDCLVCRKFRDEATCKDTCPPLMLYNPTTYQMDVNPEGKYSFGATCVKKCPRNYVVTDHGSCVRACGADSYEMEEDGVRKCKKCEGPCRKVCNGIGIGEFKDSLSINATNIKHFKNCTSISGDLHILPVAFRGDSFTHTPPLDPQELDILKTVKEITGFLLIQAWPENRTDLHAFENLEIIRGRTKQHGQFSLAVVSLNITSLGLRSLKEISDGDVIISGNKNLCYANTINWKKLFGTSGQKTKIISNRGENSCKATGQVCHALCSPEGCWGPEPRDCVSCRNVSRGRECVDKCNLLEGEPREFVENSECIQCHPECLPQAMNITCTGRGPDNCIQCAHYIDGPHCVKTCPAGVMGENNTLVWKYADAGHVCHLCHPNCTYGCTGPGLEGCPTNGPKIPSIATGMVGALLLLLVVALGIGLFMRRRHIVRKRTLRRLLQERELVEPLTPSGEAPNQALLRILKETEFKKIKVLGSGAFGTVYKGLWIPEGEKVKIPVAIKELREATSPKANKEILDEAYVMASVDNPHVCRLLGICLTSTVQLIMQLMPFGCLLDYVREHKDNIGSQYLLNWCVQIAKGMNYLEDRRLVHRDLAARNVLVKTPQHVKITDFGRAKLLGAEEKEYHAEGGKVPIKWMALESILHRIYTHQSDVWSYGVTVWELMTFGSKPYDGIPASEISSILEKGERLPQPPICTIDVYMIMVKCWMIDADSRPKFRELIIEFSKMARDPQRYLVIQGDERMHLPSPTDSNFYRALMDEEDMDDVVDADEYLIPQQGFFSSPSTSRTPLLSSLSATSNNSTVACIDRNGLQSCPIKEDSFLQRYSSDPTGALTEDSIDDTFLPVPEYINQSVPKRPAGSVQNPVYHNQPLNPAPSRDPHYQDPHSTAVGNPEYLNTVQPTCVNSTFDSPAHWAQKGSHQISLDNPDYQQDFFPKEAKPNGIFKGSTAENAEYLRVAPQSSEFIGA
Experiment: Inhibition of cytoplasmic GST-tagged human recombinant EGFR L858R/T790M double mutant (668-1210 residues) expressed in baculovirus system by z-lyte assay
Details: not given

Row | Compound | IC50
52 | Cn1cc(-c2ccc3ncnc(Nc4ccc5ncccc5c4)c3c2)cn1 | > 1 µM
53 | C#Cc1cccc(Nc2ncnc3ccc(-c4cnn(C)c4)cc23)c1 | > 1 µM
54 | Fc1ccc(Nc2ncnc3ccc(-c4cnn(C5CCNCC5)c4)cc23)cc1Cl | > 1 µM

Target: Receptor tyrosine-protein kinase erbB-2 (Homo sapiens, UniProt P04626)
Sequence (P04626 whole entry): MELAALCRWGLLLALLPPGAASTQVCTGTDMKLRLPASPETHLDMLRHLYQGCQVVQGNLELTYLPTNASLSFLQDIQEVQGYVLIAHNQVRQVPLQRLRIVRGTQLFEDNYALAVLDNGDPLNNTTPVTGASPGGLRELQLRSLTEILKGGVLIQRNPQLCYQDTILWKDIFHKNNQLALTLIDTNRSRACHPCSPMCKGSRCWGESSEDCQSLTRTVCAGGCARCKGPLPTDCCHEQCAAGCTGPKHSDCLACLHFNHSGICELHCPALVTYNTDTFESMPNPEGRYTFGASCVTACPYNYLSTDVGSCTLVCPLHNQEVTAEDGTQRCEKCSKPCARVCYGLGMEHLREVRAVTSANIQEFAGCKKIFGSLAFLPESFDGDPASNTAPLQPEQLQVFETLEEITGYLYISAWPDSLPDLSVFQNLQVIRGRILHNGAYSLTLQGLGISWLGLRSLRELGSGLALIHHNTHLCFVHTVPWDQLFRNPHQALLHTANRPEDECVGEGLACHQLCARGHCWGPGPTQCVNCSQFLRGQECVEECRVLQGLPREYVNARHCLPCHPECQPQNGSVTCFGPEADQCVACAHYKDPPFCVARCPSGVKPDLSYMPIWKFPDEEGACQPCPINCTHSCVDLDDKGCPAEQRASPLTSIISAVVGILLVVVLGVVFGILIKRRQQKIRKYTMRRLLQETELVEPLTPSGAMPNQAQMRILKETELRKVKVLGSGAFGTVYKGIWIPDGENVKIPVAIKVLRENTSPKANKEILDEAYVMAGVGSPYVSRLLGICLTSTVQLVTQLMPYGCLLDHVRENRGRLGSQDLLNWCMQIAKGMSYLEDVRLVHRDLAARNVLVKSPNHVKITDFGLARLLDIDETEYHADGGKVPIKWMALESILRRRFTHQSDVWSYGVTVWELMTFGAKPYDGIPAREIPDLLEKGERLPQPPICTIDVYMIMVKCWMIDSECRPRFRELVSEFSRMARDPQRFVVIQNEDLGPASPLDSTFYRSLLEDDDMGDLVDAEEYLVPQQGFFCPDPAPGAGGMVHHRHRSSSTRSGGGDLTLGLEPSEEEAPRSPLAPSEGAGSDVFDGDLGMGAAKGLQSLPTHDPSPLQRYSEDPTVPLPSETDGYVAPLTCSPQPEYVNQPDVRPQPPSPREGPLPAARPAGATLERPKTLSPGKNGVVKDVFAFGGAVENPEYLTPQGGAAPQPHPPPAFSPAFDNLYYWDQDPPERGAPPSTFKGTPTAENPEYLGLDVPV
Experiment: Inhibition of cytoplasmic His-tagged human ErbB2 expressed in baculovirus system by z-lyte assay
Details: not given

Row | Compound | IC50
55 | Cn1cc(-c2ccc3ncnc(Nc4ccc5ncccc5c4)c3c2)cn1 | 0.874 µM
56 | C#Cc1cccc(Nc2ncnc3ccc(-c4cnn(C)c4)cc23)c1 | 0.59 µM
57 | Fc1ccc(Nc2ncnc3ccc(-c4cnn(C5CCNCC5)c4)cc23)cc1Cl | 1.2 µM

Target: Receptor tyrosine-protein kinase erbB-4 (Homo sapiens, UniProt Q15303)
Sequence (Q15303 whole entry): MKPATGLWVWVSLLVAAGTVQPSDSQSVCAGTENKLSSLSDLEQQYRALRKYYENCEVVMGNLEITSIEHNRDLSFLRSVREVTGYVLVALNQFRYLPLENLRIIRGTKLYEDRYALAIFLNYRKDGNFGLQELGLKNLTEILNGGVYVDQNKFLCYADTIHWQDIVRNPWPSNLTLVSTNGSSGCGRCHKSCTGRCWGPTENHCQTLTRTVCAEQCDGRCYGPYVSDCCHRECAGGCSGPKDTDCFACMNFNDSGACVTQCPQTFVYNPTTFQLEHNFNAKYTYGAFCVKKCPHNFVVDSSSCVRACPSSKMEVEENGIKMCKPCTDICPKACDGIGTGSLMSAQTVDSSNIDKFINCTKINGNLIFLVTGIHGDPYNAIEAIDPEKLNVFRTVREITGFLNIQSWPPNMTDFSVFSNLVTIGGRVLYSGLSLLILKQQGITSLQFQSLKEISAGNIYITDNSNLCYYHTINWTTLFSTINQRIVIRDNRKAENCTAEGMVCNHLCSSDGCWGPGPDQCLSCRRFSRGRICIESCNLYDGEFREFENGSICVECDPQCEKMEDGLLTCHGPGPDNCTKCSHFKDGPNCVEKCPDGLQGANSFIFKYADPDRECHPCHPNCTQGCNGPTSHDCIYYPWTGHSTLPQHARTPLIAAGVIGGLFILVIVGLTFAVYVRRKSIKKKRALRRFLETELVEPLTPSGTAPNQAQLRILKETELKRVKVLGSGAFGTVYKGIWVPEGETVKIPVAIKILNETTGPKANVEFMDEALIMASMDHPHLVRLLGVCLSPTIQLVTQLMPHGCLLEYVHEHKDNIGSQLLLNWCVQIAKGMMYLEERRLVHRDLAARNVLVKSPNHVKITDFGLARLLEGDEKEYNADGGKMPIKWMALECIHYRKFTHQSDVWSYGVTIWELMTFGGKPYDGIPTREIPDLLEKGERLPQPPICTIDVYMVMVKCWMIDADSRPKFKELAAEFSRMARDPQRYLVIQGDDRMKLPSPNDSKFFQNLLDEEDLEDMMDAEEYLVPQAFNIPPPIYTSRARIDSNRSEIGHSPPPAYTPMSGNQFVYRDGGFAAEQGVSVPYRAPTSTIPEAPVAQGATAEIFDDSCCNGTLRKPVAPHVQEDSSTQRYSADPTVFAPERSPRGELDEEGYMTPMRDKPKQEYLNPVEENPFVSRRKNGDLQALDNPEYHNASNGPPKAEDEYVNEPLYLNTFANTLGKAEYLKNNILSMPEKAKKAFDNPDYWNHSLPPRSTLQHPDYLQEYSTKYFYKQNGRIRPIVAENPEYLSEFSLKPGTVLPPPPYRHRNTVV
Experiment: Inhibition of cytoplasmic GST-tagged human ErbB4 expressed in baculovirus system by z-lyte assay
Details: not given

Row | Compound | IC50
58 | Cn1cc(-c2ccc3ncnc(Nc4ccc5ncccc5c4)c3c2)cn1 | 0.93 µM
59 | C#Cc1cccc(Nc2ncnc3ccc(-c4cnn(C)c4)cc23)c1 | 0.782 µM
60 | Fc1ccc(Nc2ncnc3ccc(-c4cnn(C5CCNCC5)c4)cc23)cc1Cl | 1.6 µM

Target: T1, Epidermal growth factor receptor
Experiment: not given
Details: at 1 µM

Row | Compound | inhibition
61 | Cn1cc(-c2ccc3ncnc(Nc4ccc5ncccc5c4)c3c2)cn1 | 101%
62 | COc1cccc(CNc2ncnc3ncc(-c4cnn(C)c4)cc23)c1 | 18%
63 | CC(Nc1ncnc2ncc(-c3cnn(C)c3)cc12)c1ccncc1 (centres undefined) | 0%
64 | C#Cc1cccc(Nc2ncnc3ccc(-c4cnn(C)c4)cc23)c1 | 102%
65 | COc1cccc(CNc2ncnc3ccc(-c4cnn(C)c4)cc23)c1 | 67%
66 | Fc1ccc(Nc2ncnc3ccc(-c4cnn(C5CCNCC5)c4)cc23)cc1Cl | 99%

Second part, the molecule after the results:

Row | inhibition | Compound
67 | 52% | CC(Oc1ncnc2ccc(-c3cnn(C4CCNCC4)c3)cc12)c1c(Cl)ccc(F)c1Cl (centres undefined)
68 | 17% | CC(Nc1ncnc2ncc(-c3cnn(C4CCNCC4)c3)cc12)c1c(Cl)ccc(F)c1Cl (centres undefined)
69 | 61% | CC(Nc1ncnc2ccc(-c3cnn(C4CCNCC4)c3)cc12)c1c(Cl)ccc(F)c1Cl (centres undefined)
